System: epidermis / stratum corneum (skin cell renewal)
Experiment: Skin cell renewal (dansyl chloride) method
Format: in vivo, human
Conditions: standard positive control; topical, pH 3.0 dissolved in water; vs untreated site
Text: Several test methods were used to evaluate results of the compositions according to the present disclosure. One test method used was the skin cell renewal (dansyl chloride) method. The rate of cell renewal, or the transit time for an epidermal basal cell, to mature and slough off the skin surface can be assessed via a dansyl chloride staining method. As we age the rate of renewal decreases from about 15-20 days for a person to about 30 days for a person. […]
The full thickness epidermis was stained with a fluorescent dye as follows: 5% ultra pure dansyl chloride was milled into petrolatum and applied as a very thin film to standard adhesive bandages that were 2 cm by 3 cm. […] Staining was confirmed by viewing the sites with a long wave (ultra violet) UV light source to detect dansyl chloride fluorescence. […]
To assess product effects on cell renewal rates, test products were applied topically twice a day in a randomized fashion to the test sites with an untreated site serving as a control. […] Removal of the stain, reflecting loss of stratum corneum was monitored daily with the UV light source until complete removal, usually occurring in 3-4 weeks, of all stain was noted. The percentage increase in cell renewal was calculated as follows: […]

CC(O)C(=O)O (stereo not shown) [5% lactic acid, lactic acid]
increases in renewal rates (percentage increase in cell renewal): 25-30%

From patent US20100178286A1, “METHODS AND COMPOSITIONS FOR REDUCING FACIAL LINES AND WRINKLES” (priority 2007, published 2010)
